This passage reports 3 h FOB score results from the OligoGym collection.

This data set has as its target UBE3A-ATS. Put plainly: mouse, dose not given. As to conditions: ASO.

HELM strings list units from the 5' end as sugar, base in round brackets, then linkage (d deoxyribose, r ribose, m 2'-O-methyl, p phosphodiester). Strings are as the collection lists them; they lack the last nucleoside at the 3' end of the tested compound. [moe] = 2'-O-(2-methoxyethyl) (MOE); [sp] = phosphorothioate linkage; [m5C] = 5-methylcytosine

Take “RNA1{[moe](G)[sp].[moe](G)p.[moe](T)p.[moe]([m5C])p.[moe](A)p.[moe](T)[sp].d([m5C])[sp].d(T)[sp].d([m5C])[sp].d(G)[sp].d(G)[sp].d(G)[sp].d(T)[sp].d(A)[sp].[moe](T)p.[moe](A)[sp].[moe](T)}$$$$ (last 3' nucleoside missing)”: the 3 h FOB score turned out to be 6 score 0-7. The figure for “RNA1{[moe]([m5C])[sp].[moe](G)p.[moe](G)p.[moe](G)p.[moe]([m5C])p.d(T)[sp].d(A)[sp].d(T)[sp].d(G)[sp].d(T)[sp].d(G)[sp].d(A)[sp].d(G)[sp].d(A)[sp].d(T)[sp].[moe](A)p.[moe](A)p.[moe](T)[sp].[moe](T)}$$$$ (last 3' nucleoside missing)” is 4 score 0-7. In turn, “RNA1{[moe]([m5C])[sp].[moe](T)p.[moe](T)p.[moe]([m5C])p.d(A)[sp].d([m5C])[sp].d([m5C])[sp].d(A)[sp].d(T)[sp].d(T)[sp].d(T)[sp].d(T)[sp].d(G)[sp].d(A)[sp].[moe]([m5C])p.[moe]([m5C])p.[moe](T)p.[moe](T)[sp].[moe]([m5C])}$$$$ (last 3' nucleoside missing)” registered a 3 h FOB score of 1 score 0-7. “RNA1{[moe](G)[sp].[moe](A)p.[moe](G)p.[moe](A)p.[moe]([m5C])p.d(A)[sp].d(T)[sp].d(G)[sp].d(T)[sp].d(G)[sp].d([m5C])[sp].d([m5C])[sp].d(A)[sp].d(G)[sp].d(T)[sp].[moe](T)p.[moe]([m5C])p.[moe](A)[sp].[moe](A)}$$$$ (last 3' nucleoside missing)” displayed a 3 h FOB score of 6 score 0-7. The figure for “RNA1{[moe](G)[sp].[moe](T)p.[moe](G)p.[moe](A)p.[moe](G)p.[moe]([m5C])p.d(T)[sp].d(A)[sp].d(T)[sp].d([m5C])[sp].d(T)[sp].d(G)[sp].d(T)[sp].d(A)[sp].d([m5C])[sp].d(A)[sp].[moe](A)p.[moe](A)[sp].[moe](A)}$$$$ (last 3' nucleoside missing)” is 1.3 score 0-7. With “RNA1{[moe]([m5C])[sp].[moe](T)p.[moe](G)p.[moe](A)p.d(T)[sp].d([m5C])[sp].d(A)[sp].d([m5C])[sp].d(A)[sp].d(T)[sp].d(T)[sp].d(A)[sp].d([m5C])[sp].d([m5C])[sp].[moe]([m5C])p.[moe](A)p.[moe](T)p.[moe]([m5C])[sp].[moe]([m5C])}$$$$ (last 3' nucleoside missing)” the figure was 0 score 0-7; with “RNA1{[moe](A)[sp].[moe](G)p.[moe](G)p.[moe](T)p.d([m5C])[sp].d(A)[sp].d(A)[sp].d([m5C])[sp].d([m5C])[sp].d(A)[sp].d(A)[sp].d(T)[sp].d(T)[sp].d(T)[sp].[moe](G)p.[moe]([m5C])p.[moe](T)p.[moe](A)[sp].[moe](T)}$$$$ (last 3' nucleoside missing)”, 1 score 0-7. In turn, “RNA1{[moe]([m5C])[sp].[moe](T)p.[moe](A)p.[moe](T)p.[moe]([m5C])p.d(T)[sp].d(G)[sp].d(T)[sp].d(A)[sp].d([m5C])[sp].d(A)[sp].d(A)[sp].d(A)[sp].d(A)[sp].d(T)[sp].[moe](G)p.[moe](G)p.[moe](A)[sp].[moe](A)}$$$$ (last 3' nucleoside missing)” had a 3 h FOB score of 0 score 0-7. The figure for “RNA1{[moe](A)[sp].[moe](T)[sp].[moe]([m5C])[sp].[moe](A)[sp].[moe](T)[sp].d(G)[sp].d(T)[sp].d(G)[sp].d([m5C])[sp].d(A)[sp].d(T)[sp].d(A)[sp].d([m5C])[sp].d([m5C])[sp].d([m5C])[sp].[moe](A)[sp].[moe](G)[sp].[moe](G)[sp].[moe](G)}$$$$ (last 3' nucleoside missing)” is 5.2 score 0-7; for “RNA1{[moe](A)[sp].[moe](G)p.[moe](A)p.[moe](G)p.[moe](A)p.d([m5C])[sp].d([m5C])[sp].d(T)[sp].d([m5C])[sp].d(A)[sp].d(A)[sp].d(G)[sp].d(A)[sp].d([m5C])[sp].d([m5C])[sp].[moe](T)p.[moe](A)p.[moe](T)[sp].[moe](A)}$$$$ (last 3' nucleoside missing)” it is 3.8 score 0-7.
